Reference: US20070059242A1, “METHODS TO IDENTIFY THERAPEUTIC AGENTS” (priority 2005, published 2007)

Key:
[1] = Aldolization of 4a with atherosclerotic artery and blood fractions (1H NMR); assay type: in vitro ADME, human
Experimental: Aldolization of secoketoaldehyde 4a with atherosclerotic artery and blood fractions. […] To this solution was added either a) atherosclerotic artery (2.1 mg) that had been homogenized in PBS (1 ml) in a tissue homogenizer and then lyophilized to dryness, b) lyophilized human blood (1 ml), c) lyophilized human plasma (1 ml) or d) PBS lyophilized (1 ml). At time points samples were removed and analyzed by ^1H NMR vide supra.

[2] = Aldolization of ketoaldehyde 4a with amino acids (1H NMR); assay type: physicochemical
Experimental: Aldolization of ketoaldehyde 4a with amino acids. […] To this solution was added 1 equivalent of either: a) L-proline, b) glycine, c) L-lysine hydrochloride or d) L-lysine ethyl ester dihydrochloride. At time points the samples were analyzed by ^1H NMR.

[3] = test system: T-lymphocyte cell line (Jurkat E6.1); test: LDH release cytotoxicity assay, Jurkat; assay type: cell-based; conditions: Homo sapiens; Jurkat E6.1; LDH release, 0-100 μM, 18 h
Experimental: Cytotoxicity assays. WI-L2 human B-lymphocyte line, HAAE-1 human abdominal aortic endothelial line, MH-S murine alveolar macrophage line, and J774A.1 murine tissue macrophage line were obtained from the ATCC. Human aortic endothelial cells (HAEC) and human vascular smooth muscle cells (VSMS) were obtained from Cambrex Bio Science. Jurkat E6-1T-lymphocytes were kindly provided by Dr. J. Kaye (The Scripps Research Institute). Cells were cultured in ATCC-recommended media with 10% fetal calf serum. Cells were incubated in a controlled atmosphere at 37° C., with 5 or 7% CO2. For lactate dehydrogenase (LDH) release assays, adherent cells were harvested either by addition of 0.05% trypsin/EDTA or by scraping. The cells obtained were seeded onto 96-well microtiter plates (25,000 cells/well) and allowed to recover for 24-48 h. […] Cytotoxicity was then determined by measuring lactate dehydrogenase (LDH) release from cells in culture. […] 100% Cytotoxicity was defined as the maximum amount of LDH released by dead cells as shown by trypan blue exclusion, or the highest amount of LDH detected upon lysis of cells by 0.9% Triton X-100. The IC50 values were determined by comparison of the raw duplicate data for concentration versus cytotoxicity (%) to non-linear regression analysis (Hill plot) using Graphpad v3.0 software for Macintosh. […]

[4] = Loss of extractable 5a from stored plasma; conditions: preliminary investigations
Experimental: Plasma samples were obtained from patients (n=8) who were scheduled to undergo carotid endarterectomy within 24 h. […] Control plasma samples were obtained from random patients (n=15) attending a general medical clinic and were analyzed 7 days after collection. In a typical procedure, plasma in EDTA (1 ml) was washed with dichloromethane (DCM, 3×1 mL). The combined organic fractions were evaporated in vacuo. The residue was dissolved in methanol (0.9 mL) and a solution of 2,4-dinitrophenyl hydrazine (100 μL, 0.01 M, Lancaster) and 1N HCl in ethanol was added. Nitrogen was bubbled through the solution for 5 min and then the solution was stirred for 2 h. The resultant solution was filtered through a 0.22 μm filter and the filtrate was analyzed by the HPLC assay vide supra.

Row | SMILES | conversion of 4a into 5a ([1]; extracts from atheromatous arteries, 22 h) | aldolization of 4a ([1]; lyophilized PBS) | conversion of 4a into 5a ([1]; plasma, 15 h) | conversion of 4a into 5a ([1]; serum, 15 h) | conversion of 4a into 5a ([1]; whole blood, 15 h) | aldolization of 4a ([2]; DMSO-d6 (800 μl) and D2O (80 μl) alone) | conversion of 4a into 5a ([2]; Gly, 24 h) | conversion of 4a into 5a ([2]; L-Lys(OEt).2HCl, 100 h) [%] | conversion of 4a into 5a ([2]; L-Lys.HCl, 24 h) | conversion of 4a into 5a ([2]; L-Pro, 2 h) | IC50 [3] [µM] | decrease of amount that can be extracted from plasma [4]
1 | CC(C)CCC[C@@H](C)[C@H]1CCC2C(CC=O)C([C@@]3(C)CC[C@H](O)CC3=O)CC[C@@]21C (stereo partly drawn) [4a, 3β-Hydroxy-5-oxo-5,6-secocholestan-6-al] | complete conversion | no aldolization | complete conversion | complete conversion | complete conversion | no aldolization | complete conversion | 62 | complete conversion | complete conversion |  | 
2 | CC(C)CCC[C@@H](C)[C@H]1CCC2C3C(CC[C@@]21C)[C@@]1(C)CC[C@H](O)C[C@@]1(O)[C@@H]3C=O (stereo partly drawn) [5a, 3β-Hydroxy-5β-hydroxy-B-norcholestane-6β-carboxaldehyde] |  |  |  |  |  |  |  |  |  |  | 12.6 ± 1.9 | about 5 % per day
